Data set [1] addresses T1, α-mannosidase from Jack Bean (Canavalia ensiformis, UniProt C0HJB3).
T1 construct: purchased M7257
In words: α-mannosidase activity assay. The data set is classed as biochemical. To be noted: 400 μM. On the procedure: (§1) a-mannosidase activity was measured using substrate p-nitrophenyl α-mannopyranoside (1 mM). Enzyme from Jack Bean (M7257) (final concentration of 0.077 U) was incubated at 37° C. in a final volume of 50 μl of 50 mM potassium phosphate buffer, pH 7.5. α-glucosidase was assayed with substrate p-nitrophenyl a-glucoside (7 mM). Enzyme from Saccharomyces cerevisiae-type 1 (Sigma, G5003) (final concentration of 0.1 U) was incubated at 37° C. in a final volume of 50 μl of PBS, pH 7.5. β-Glucosidase was assayed with substrate 4-nitrophenyl β-D-glucopyranoside (Roche). Enzyme from almond (Sigma, G0395) (final concentration of 0.002 U) was incubated at 37° C. in a final volume of 50 μl of PBS, pH 7.5 […]. The incubation was stopped by addition of an equal volume of acid-based stop solution (R&D systems, 895032). Enzymatic activity was measured at 405 nm. α-glucosidase from Saccharomyces cerevisiae type I (G5003) with p-nitrophenyl α-D-glucopyranoside (Sigma, N1377) as the substrate.

Another data set has as its system β-Glucosidase. The data set can be described thus: β-glucosidase activity assay. The data set is classed as biochemical, almond. The conditions noted are these: up to 2 mM. On the procedure: as §1
The test system of the next data set is O-glycan of BCEC lysates. The data set can be described thus: O-glycan analysis in BCEC lysates (MALDI-Tof). Format: cell-based, bovine. To be noted: 40 μM ManN. On the procedure:
For O-glycan analysis, homogenized cell samples were treated with 50 mM NaOH in presence of 1M NaBH4 for 16 hrs at 45° C. The reaction mixture was neutralized using ice-cold 30% acetic acid slowly. The neutralized reaction mixture was then passed over Dowex 50-X cation exchange resin to remove sodium ion and lyophilized. Excess boric acid generated during neutralization was then removed by co-evaporation using acidified methanol and methanol respectively. Finally the O-glycan was purified by passing over C18 cartridge. Dried and purified O-glycan was then methylated and used for O-glycan analysis after permethylation. Permethylated samples were then dissolved in absolute methanol and mixed with SDHB (Super-DHB) MALDI matrix in 1:1 v/v ratio and spotted on maldi plate. Mass spectral data was acquired using Bruker AutoFlex mass spectrometer at positive, reflectron mode. The mass spectral data were analyzed and annotated using GlycoWork Bench software and masses matched with the proposed structures were annotated. The mono-isotopic ion intensities are taken for calculation.

In another data set the test system is 4T1 cells. In words: 4T1 proliferation assay (MTS). Format: cell-based.
Another data set relates to bovine pituitary cells. The data set can be described thus: Bovine pituitary cell proliferation assay. Format: cell-based. The conditions noted are these: alone or in combination with growth factors. On the procedure: (§2) Proliferation assays with fibroblasts were done in low-glucose DMEM containing 1% FBS, with or without 10 ng/ml bFGF, or 100 ng/ml human EGF and the assay was ended at day 3. ARPE-19 cells were gently lifted with 0.025% trypsin and plated in RtEGM media (Clonetics) containing 2% FBS, L-glutamine, human bFGF and GA-1000. Once cells were attached to plates, serum-free RtEGM media was used to maintain the cultures. For proliferation assays, 1500 human RPE cells were plated into 96-well plates in low-glucose DMEM containing 1% FBS. A673, U87MG, Calu6 and AML12 cells were grown until confluent and were then harvested and re-suspended in appropriate assay media. For proliferation assays, cells were plated at the density of 1000-2000 cells/well in low-glucose DMEM containing 5% FBS or otherwise stated. Bovine pituitary cells (pituitary folliculostellate cells) were isolated as previously described. For proliferation assays with human epidermal keratinocytes, human DMVECs and human dermal fibroblast cells, 1000 cells/well were plated in low-glucose DMEM containing 1% FBS with or without various growth factors. The assay was ended at day 3 for bovine pituitary cells and at day 4 for all the other cell types. […] Four days later, tumor cell growth was measured by the MTS assay (Promega, Madison, WI), a colorimetric assay that measures metabolic activity of viable cells. […]

The test system of the next data set is human dermal fibroblasts. The data set can be described thus: Human dermal fibroblast proliferation assay. The data set is classed as cell-based. To be noted: alone or in combination with growth factors. On the procedure: as §2
For data set [2] the following is noted: mouse, in vivo, po. On the procedure: Following oral administration, there was a relatively rapid decline in ManN plasma levels. Plasma free ManN levels reached a peak level of −100 nmol/ml plasma at 1 hr. […] 2 hours after oral feeding of 20% ManN, muscle samples were taken from the ischemic legs. A significant amount of ManN reached the ischemic legs, with 0.17+1−0.18 nmol/mg protein of free ManN and 0.91+1−0.24 nmol/mg protein of ManN-6p.
To test ManN stability in wound fluid collected from mice with skin infection as described below, 1.5 μl of 5% ManN solution was added to each 200 μl wound fluid which was first diluted 1:1 (v/v) with PBS. At each time point, samples were taken from 37° C. incubator and stored at −80° C. Plasma proteins were precipitated by adding ice cold acetonitrile to plasma: acetonitrile 1:3 (v/v) ratio. Samples were kept over ice for 1 hr and then centrifuged at 12000 g for 10 min at 7° C. to form a pellet. Supernatants were transferred to other tubed, dried down on a Speed Vac and then reconstituted in UltraPure distilled water and filtered through pre-washed Nanosep 3K Omega filters (Pall Corporation). The filtrate was dried down on Speed Vac. The dry samples were dissolved in 100 μl of water and 2 μl plasma or wound fluid sample was subjected to HPLC analysis. Neutral and amino sugars were separated on a Dionex CarboPac PAI column 4 mm×250 mm with 4 mm×50 mm guard column. An isocratic gradient of 19 mM sodium hydroxide with 0.95 mM sodium acetate was used at a flow rate of 1 ml/min with 20 min run. Data was collected using the Dionex ICS-3000 HPLC system with pulsed amperometric detector using standard Quad waveform. ManN was identified and quantified by comparison with monosaccharide standard using Thermo Scientific Chromeleon software. No ManN samples served as negative controls.

T1 sequence (C0HJB3 whole entry): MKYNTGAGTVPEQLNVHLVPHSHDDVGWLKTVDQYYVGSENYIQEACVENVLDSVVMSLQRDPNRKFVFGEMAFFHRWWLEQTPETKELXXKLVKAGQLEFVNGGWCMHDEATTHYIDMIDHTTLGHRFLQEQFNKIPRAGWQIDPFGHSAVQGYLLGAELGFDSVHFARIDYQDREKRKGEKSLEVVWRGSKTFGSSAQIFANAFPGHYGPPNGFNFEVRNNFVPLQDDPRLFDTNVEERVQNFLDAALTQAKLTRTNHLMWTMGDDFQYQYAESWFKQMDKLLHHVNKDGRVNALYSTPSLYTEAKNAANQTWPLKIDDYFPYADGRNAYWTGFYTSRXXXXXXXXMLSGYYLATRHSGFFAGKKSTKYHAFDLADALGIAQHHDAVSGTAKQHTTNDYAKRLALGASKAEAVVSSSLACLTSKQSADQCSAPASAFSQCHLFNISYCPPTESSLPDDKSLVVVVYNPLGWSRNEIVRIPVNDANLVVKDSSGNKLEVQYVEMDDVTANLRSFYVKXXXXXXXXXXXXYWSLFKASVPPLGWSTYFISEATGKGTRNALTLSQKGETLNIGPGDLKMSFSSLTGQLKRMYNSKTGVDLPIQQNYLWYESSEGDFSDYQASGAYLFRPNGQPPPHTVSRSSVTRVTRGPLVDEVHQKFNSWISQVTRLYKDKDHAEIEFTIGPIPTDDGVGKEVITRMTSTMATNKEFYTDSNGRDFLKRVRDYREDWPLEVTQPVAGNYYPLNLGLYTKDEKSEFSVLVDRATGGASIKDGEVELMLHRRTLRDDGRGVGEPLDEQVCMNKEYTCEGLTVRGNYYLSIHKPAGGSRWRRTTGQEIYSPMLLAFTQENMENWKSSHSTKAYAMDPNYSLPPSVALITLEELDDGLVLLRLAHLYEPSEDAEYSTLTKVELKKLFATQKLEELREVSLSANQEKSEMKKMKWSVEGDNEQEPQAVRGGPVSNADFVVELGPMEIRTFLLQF

Regarding `N[C@H](C=O)[C@@H](O)[C@H](O)[C@H](O)CO` [ManN, 2-Amino-2-deoxy-D-mannose], in data set [1], the “inhibitory activity on α-mannosidase” value was “inhibitory activity”. For the same compound, the “effect on β-glucosidase” value in the data set on β-Glucosidase is on record as “No effect”. Besides, the O-glycosylation entry in the data set on O-glycan of BCEC lysates was “overall decrease in O-glycosylation”. In addition, the “toxicity on 4T1 cells” value in the data set with 4T1 cells (5 mM) is “significant toxicity”. Further, the “growth of 4T1” value with 4T1 cells (ManN, MTS) is recorded as “did not promote growth”. Further, the “proliferation of bovine pituitary cells” value in the data set on bovine pituitary cells was “no increases in proliferation”. For the same compound, the “proliferation of human dermal fibroblasts” value with human dermal fibroblasts is recorded as “no increases in proliferation”. In data set [2], the “plasma ManN after 3 hours relative to peak” value is on record as “about half of that amount”, the “plasma free ManN peak level” value is reported as approximately 100 nmol/ml plasma and the “time of plasma peak level” value was found to be 1 h. For the same compound, in data set [2] (2 h), the “ManN-6p in ischemic leg muscle” value is 0.91+1−0.24 nmol/mg protein and the “free ManN in ischemic leg muscle” value is 0.17+1−0.18 nmol/mg protein.

The values above are taken from patent US20250275993A1, “GLYCOSYLATION INHIBITORS AS THERAPEUTICS FOR STROKE” (The Regents of the University of California, priority 2022, published 2025).
